Measured values: US11712438B2, “Phenyl derivatives as PGE2 receptor modulators” (IDORSIA PHARMACEUTICALS LTD, priority 2017, dated 2023)

Columns and labels:
[1] = molecular target: PTRGER4 (EP4) (Homo sapiens, UniProt P35408); assay: cell-based;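 further: assay plate preincubated 15 min at 37 °C, after which PGE2 was added at 20 nM final and incubation continued 120 min at 37 °C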
[2] = molecular target: PTGER2 (EP2) (Homo sapiens, UniProt P43116); assay: cell-based
Sequence of PTGER2 (EP2) (P43116 whole entry): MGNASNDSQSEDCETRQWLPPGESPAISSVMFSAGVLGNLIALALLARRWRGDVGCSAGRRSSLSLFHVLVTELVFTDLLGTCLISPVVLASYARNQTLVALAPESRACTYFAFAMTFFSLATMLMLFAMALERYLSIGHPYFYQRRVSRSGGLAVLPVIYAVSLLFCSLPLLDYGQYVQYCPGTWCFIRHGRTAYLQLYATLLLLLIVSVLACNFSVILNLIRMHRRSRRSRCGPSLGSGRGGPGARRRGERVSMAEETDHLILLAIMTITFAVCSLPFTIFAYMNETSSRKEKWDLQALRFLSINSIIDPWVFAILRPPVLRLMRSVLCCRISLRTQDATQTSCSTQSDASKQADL
Source text: The assay is using the PathHunter™ HEK 293 PTGER2 and PTGER4 b-arrestin cell lines from DiscoverX. The system is based on the Enzyme Fragment Complementation Technology. Two complementing fragments of the b-galactosidase enzyme are expressed within stably transfected cells. The larger portion of b-gal, termed EA for Enzyme Acceptor, is fused to the C-terminus of b-arrestin 2. The smaller fragment, termed ProLink™ tag, is fused to PTGER2 (EP2) or PTRGER4 (EP4) at the C-terminus. Upon activation, b-arrestin is recruited which forces the interaction of ProLink and EA, allowing complementation of the two fragments of b-gal and the formation of a functional enzyme which is capable of hydrolysing the substrate and generating a chemiluminescent signal.
The HEK 293 PTGER2 b-arrestin cells (DiscoverX 93-021-4C1) are detached from culture dishes with a cell dissociation buffer (Invitrogen, 13151-014), and collected in growing medium (GM: DMEM+Glutamax-I (Invitrogen 32430)/10% FCS, 1% Penicilin/streptomycin). 5000 cells per well of a 384 well plate (white with white bottom Greiner 781080) are seeded in 20 ul per well of GM. Plate is incubated at 37° C., 5% CO2 for 24 hours.
Stock solutions of test compounds are made at a concentration of 10 mM in DMSO, and serially diluted in DMSO to concentrations required for inhibition dose response curves (tested concentration range 10 μM-2 nM or 1 μM-0.2 nM).
PGE2 (Cayman 14010, stock solution: 10 mM in DMSO) is used as agonist at 5 μM final concentration, corresponding to EC80.
Five microliters of diluted compounds are transferred into the assay plate. Plate is pre-incubated 15 minutes at 37° C. Then five microliters of PGE2 (final conc. 5 μM) are transferred into the assay plate. Plate is incubated 120 minutes at 37° C.
Twelve μl of reagent are transferred to the assay plate and incubate for 1 hour at room temperature in the dark. Luminescence counts are read on a BMG Fluostar Optima reader according to manufacturer's instructions.
For each compound concentration calculate of the percentage of activity compared to DMSO control value as average±STDEV. (each concentration is measured in duplicate)
When compounds were measured multiple times, mean values are given.

Sequence of PTRGER4 (EP4) (P35408 whole entry): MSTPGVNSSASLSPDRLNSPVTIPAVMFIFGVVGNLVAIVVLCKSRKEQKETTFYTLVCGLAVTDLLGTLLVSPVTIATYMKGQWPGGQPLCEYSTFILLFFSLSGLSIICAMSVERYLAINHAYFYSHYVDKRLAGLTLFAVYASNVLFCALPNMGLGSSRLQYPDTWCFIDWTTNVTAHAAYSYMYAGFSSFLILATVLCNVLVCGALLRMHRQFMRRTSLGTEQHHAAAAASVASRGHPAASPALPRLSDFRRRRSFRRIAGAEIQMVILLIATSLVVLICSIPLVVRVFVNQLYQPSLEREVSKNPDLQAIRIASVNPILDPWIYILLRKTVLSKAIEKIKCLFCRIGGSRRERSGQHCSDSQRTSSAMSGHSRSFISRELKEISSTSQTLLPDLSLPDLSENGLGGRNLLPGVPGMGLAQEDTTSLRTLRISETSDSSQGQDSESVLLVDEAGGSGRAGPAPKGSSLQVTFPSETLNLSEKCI

Structure (SMILES) | IC50 [1] | IC50 [2]
Fc1cc(Br)cc(F)c1CCNc1cc(-c2ccc3cc[nH]c3c2)ncn1 [Example 170, [2-(4-Bromo-2,6-difluoro-phenyl)-ethyl]-[6-(1H-indol-6yl)-pyrimidin-4-yl]amine] | 0.746 µM | 0.424 µM
CCOc1cc(-c2cc(NCCc3c(F)cc(Br)cc3F)ncn2)ccc1C1(C(=O)O)CC1 [Example 171, 1-(4-{6-[2-(4-Bromo-2,6-difluoro-phenyl)-ethylamino]-pyrimidin-4-yl}-2-ethoxy-phenyl)-cyclopropanecarboxylic acid] | 0.582 µM | 0.68 µM
CCCc1cc(-c2cc(NCCc3c(F)cc(Br)cc3F)ncn2)ccc1C1(C(=O)O)CC1 [Example 172, 1-(4-{6-[2-(4-Bromo-2,6-difluoro-phenyl)-ethylamino]-pyrimidin-4-yl}-2-propyl-phenyl)-cyclopropanecarboxylic acid] | 0.401 µM | 0.44 µM
COc1ccc(SC)cc1CCNc1cc(-c2ccc(C(=O)O)c(OC3CCC3)c2)ncn1 [Example 173, 2-Cyclobutoxy-4-{6-[2-(2-methoxy-5-methylsulfanyl-phenyl)-ethylamino]pyrimidin-4-yl}-benzoic acid] | 0.519 µM | 0.107 µM
CCOc1c(CC(=O)O)ccc(-c2cc(NCCc3c(F)cc(Br)cc3F)ncn2)c1F [Example 175, (4-{6-[2-(4-Bromo-2,6-difluoro-phenyl)-ethylamino]-pyrimidin-4-yl}-2-ethoxy-3-fluoro-phenyl)-acetic acid] | 0.461 µM | 0.258 µM
CCOc1cc(-c2cc(NCCc3c(F)cccc3OC)ncn2)sc1C(=O)O [Example 177, 3-Ethoxy-5-{6-[2-(2-fluoro-6-methoxy-phenyl)-ethylamino]-pyrimidin-4-yl}-thiophene-2-carboxylic acid] | 0.343 µM | 0.126 µM
CCOc1cc(-c2cc(NCCc3cc(F)c(F)cc3OC)ncn2)sc1C(=O)O [Example 179, 5-{6-[2-(4,5-Difluoro-2-methoxy-phenyl)-ethylamino]-pyrimidin-4-yl}-3-ethoxy-thiophene-2-carboxylic acid] | 0.315 µM | 0.14 µM
CCOc1cc(-c2cc(NCCc3c(F)cc(Br)cc3F)ncn2)ccc1NCC(=O)O [Example 182, (4-{6-[2-(4-Bromo-2,6-difluoro-phenyl)-ethylamino]-pyrimidin-4-yl}-2-ethoxy-phenylamino)-acetic acid] | 0.208 µM | 0.163 µM
CCOc1cc(-c2cc(NCCc3cc(F)c(C(F)F)cc3OC)ncn2)ccc1C(=O)O [Example 183, 4-{6-[2-(4-Difluoromethyl-5-fluoro-2-methoxy-phenyl)-ethylamino]-pyrimidin-4-yl}-2-ethoxy-benzoic acid] | 0.661 µM | 0.695 µM
COc1cc(C)c(C)cc1CCNc1cc(-c2ccc(C(=O)O)c(OC3CCC3)c2)ncn1 [Example 188, 2-Cyclobutoxy-4-{6-[2-(2-methoxy-4,5-dimethyl-phenyl)-ethylamino]-pyrimidin-4-yl}-benzoic acid] | 0.117 µM | 0.179 µM
CCOc1cc(-c2cc(NCCc3cc(Cl)c(C(F)(F)F)cc3OC)ncn2)ccc1C(=O)O [Example 195, 4-{6-[2-(5-Chloro-2-methoxy-4-trifluoromethyl-phenyl)-ethylamino]-pyrimidin-4-yl}-2-ethoxy-benzoic acid] | 0.269 µM | 0.837 µM
CCOc1cc(-c2cc(NCCc3c(C)cc(C)cc3OC)ncn2)ccc1CC(=O)O [Example 202, (2-Ethoxy-4-{6-[2-(2-methoxy-4,6-dimethyl-phenyl)-ethylamino]-pyrimidin-4-yl}-phenyl)-acetic acid] | 0.365 µM | 0.597 µM
CCCOc1cc(-c2cc(NCCc3c(C)cc(C)cc3OC)ncn2)ccc1CC(=O)O [Example 204, (4-{6-[2-(2-Methoxy-4,6-dimethyl-phenyl)-ethylamino]-pyrimidin-4-yl}-2-propoxy-phenyl)-acetic acid] | 0.699 µM | 0.433 µM
CCOc1cc(-c2cc(NCCc3ccc(C(F)(F)F)cc3OC)ncn2)ccc1C(=O)O [Example 205, 2-Ethoxy-4-{6-[2-(2-methoxy-4-trifluoromethyl-phenyl)-ethylamino]-pyrimidin-4-yl}-benzoic acid] | 0.681 µM | 0.966 µM
COc1cc(C(F)(F)F)ccc1CCNc1cc(-c2ccc(C(=O)O)c(SC)c2)ncn1 [Example 206, 4-{6-[2-(2-Methoxy-4-trifluoromethyl-phenyl)-ethylamino]-pyrimidin-4-yl}-2-methylsulfanyl-benzoic acid] | 0.372 µM | 0.315 µM
CCOc1cc(C(F)(F)F)ccc1CCNc1cc(-c2ccc(CC(=O)O)c(OCC)c2)ncn1 [Example 214, (2-Ethoxy-4-{6-[2-(2-ethoxy-4-trifluoromethyl-phenyl)-ethylamino]-pyrimidin-4-yl}-phenyl)-acetic acid] | 0.062 µM | 0.184 µM
CSc1cc(-c2cc(NCCc3ccc(C(F)(F)F)cc3OC(F)F)ncn2)ccc1C(=O)O [Example 218, 4-{6-[2-(2-Difluoromethoxy-4-trifluoromethyl-phenyl)-ethylamino]-pyrimidin-4-yl}-2-methylsulfanyl-benzoic acid] | 0.917 µM | 0.69 µM
CCOc1cc(-c2cc(NCCc3ccc(OC(F)F)cc3OC)ncn2)ccc1C(=O)O [Example 220, 4-{6-[2-(4-Difluoromethoxy-2-methoxy-phenyl)-ethylamino]-pyrimidin-4-yl}-2-ethoxy-benzoic acid] | 0.839 µM | 0.401 µM
COc1cc(OC(F)F)ccc1CCNc1cc(-c2ccc(C(=O)O)c(SC)c2)ncn1 [Example 221, 4-{6-[2-(4-Difluoromethoxy-2-methoxy-phenyl)-ethylamino]-pyrimidin-4-yl}-2-methylsulfanyl-benzoic acid] | 0.268 µM | 0.092 µM
CCOc1cc(-c2cc(NCCc3ccc(OC(F)F)cc3OC)ncn2)sc1C(=O)O [Example 224, 5-{6-[2-(4-Difluoromethoxy-2-methoxy-phenyl)-ethylamino]-pyrimidin-4-yl}-3-ethoxy-thiophene-2-carboxylic acid] | 0.023 µM | 0.037 µM
CCOc1cc(-c2cc(NCCc3c(F)cc(C(F)(F)F)cc3OC)ncn2)ccc1C(=O)O [Example 226, 2-Ethoxy-4-{6-[2-(2-fluoro-6-methoxy-4-trifluoromethyl-phenyl)-ethylamino]-pyrimidin-4-yl}-benzoic acid] | 0.273 µM | 0.907 µM
CCOc1cc(-c2cc(NCCc3c(F)cc(OC)cc3F)ncn2)ccc1C(=O)O [Example 228, 4-{6-[2-(2,6-Difluoro-4-methoxy-phenyl)-ethylamino]-pyrimidin-4-yl}-2-ethoxy-benzoic acid] | 0.777 µM | 0.502 µM
COc1cc(F)c(CCNc2cc(-c3ccc(C(=O)O)c(SC)c3)ncn2)c(F)c1 [Example 229, 4-{6-[2-(2,6-Difluoro-4-methoxy-phenyl)-ethylamino]-pyrimidin-4-yl}-2-methylsulfanyl-benzoic acid] | 0.273 µM | 0.081 µM

More lines, now with the values ahead:

IC50 [1] | IC50 [2] | Structure (SMILES)
0.338 µM | 0.295 µM | CCCc1cc(-c2cc(NCCc3cc(C)c(C)cc3OC)ncn2)ccc1C(=O)O [Example 189]
0.181 µM | 0.486 µM | CCOc1cc(-c2cc(NCCc3cc(C)c(C)cc3OC)ncn2)ccc1CC(=O)O [Example 190, (2-Ethoxy-4-{6-[2-(2-methoxy-4,5-dimethyl-phenyl)-ethylamino]-pyrimidin-4-yl}-phenyl)-acetic acid]
0.145 µM | 0.322 µM | COc1cc(C)c(C)cc1CCNc1cc(-c2ccc(CC(=O)O)c(SC)c2)ncn1 [Example 191, (4-{6-[2-(2-Methoxy-4,5-dimethyl-phenyl)-ethylamino]-pyrimidin-4-yl}-2-methylsulfanyl-phenyl)-acetic acid]
0.193 µM | 0.38 µM | CCCc1cc(-c2cc(NCCc3cc(C)c(C)cc3OC)ncn2)ccc1CC(=O)O [Example 192, (4-{6-[2-(2-Methoxy-4,5-dimethyl-phenyl)-ethylamino]-pyrimidin-4-yl}-2-propyl-phenyl)-acetic acid]
0.159 µM | 0.797 µM | CCOc1cc(-c2cc(NCCc3cc(C)c(C)cc3OC)ncn2)cc(F)c1CC(=O)O [Example 193, (2-Ethoxy-6-fluoro-4-{6-[2-(2-methoxy-4,5-dimethyl-phenyl)-ethylamino]-pyrimidin-4-yl}-phenyl)-acetic acid]
0.207 µM | 0.548 µM | CCCOc1cc(-c2cc(NCCc3cc(C)c(C)cc3OC)ncn2)ccc1CC(=O)O [Example 194, (4-{6-[2-(2-Methoxy-4,5-dimethyl-phenyl)-ethylamino]-pyrimidin-4-yl}-2-propoxy-phenyl)-acetic acid]
0.163 µM | 0.539 µM | CCCc1cc(-c2cc(NCCc3cc(Cl)c(C(F)(F)F)cc3OC)ncn2)ccc1C(=O)O [Example 197, 4-{6-[2-(5-Chloro-2-methoxy-4-trifluoromethyl-phenyl)-ethylamino]-pyrimidin-4-yl}-2-propyl-benzoic acid]
0.283 µM | 0.163 µM | CCOc1cc(-c2cc(NCCc3cc(C)c(C(F)F)cc3OC)ncn2)ccc1C(=O)O [Example 199, 4-{6-[2-(4-Difluoromethyl-2-methoxy-5-methyl-phenyl)-ethylamino]-pyrimidin-4-yl}-2-ethoxy-benzoic acid]
0.482 µM | 0.14 µM | CCCc1cc(-c2cc(NCCc3c(C)cc(C)cc3OC)ncn2)ccc1C(=O)O [Example 201, 4-{6-[2-(2-Methoxy-4,6-dimethyl-phenyl)-ethylamino]-pyrimidin-4-yl}-2-propyl-benzoic acid]
0.491 µM | 0.721 µM | CCCc1cc(-c2cc(NCCc3ccc(C(F)(F)F)cc3OC)ncn2)ccc1C(=O)O [Example 207, 4-{6-[2-(2-Methoxy-4-trifluoromethyl-phenyl)-ethylamino]-pyrimidin-4-yl}-2-propyl-benzoic acid]
0.286 µM | 0.231 µM | CCCc1cc(-c2cc(NCCc3ccc(OC(F)F)cc3OC)ncn2)ccc1C(=O)O [Example 222, 4-{6-[2-(4-Difluoromethoxy-2-methoxy-phenyl)-ethylamino]-pyrimidin-4-yl}-2-propyl-benzoic acid]
